Laboratory results: ChEMBL document CHEMBL2396647, “The synergic modeling for the binding of fluoroquinolone antibiotics to the hERG potassium channel” (Bioorg Med Chem Lett, 2013)

What was measured:
Type in all cases: cell-based
[1] = biological target: T1, Voltage-gated inwardly rectifying potassium channel KCNH2 (Homo sapiens, UniProt Q12809, F656A); assay: Binding affinity to human ERG F656A tandem dimeric mutant expressed in HEK293 cells assessed as inhibition of tail current measured upon repolarization to -120 mV by patch clamp method
T1 sequence (Q12809 whole entry F656A): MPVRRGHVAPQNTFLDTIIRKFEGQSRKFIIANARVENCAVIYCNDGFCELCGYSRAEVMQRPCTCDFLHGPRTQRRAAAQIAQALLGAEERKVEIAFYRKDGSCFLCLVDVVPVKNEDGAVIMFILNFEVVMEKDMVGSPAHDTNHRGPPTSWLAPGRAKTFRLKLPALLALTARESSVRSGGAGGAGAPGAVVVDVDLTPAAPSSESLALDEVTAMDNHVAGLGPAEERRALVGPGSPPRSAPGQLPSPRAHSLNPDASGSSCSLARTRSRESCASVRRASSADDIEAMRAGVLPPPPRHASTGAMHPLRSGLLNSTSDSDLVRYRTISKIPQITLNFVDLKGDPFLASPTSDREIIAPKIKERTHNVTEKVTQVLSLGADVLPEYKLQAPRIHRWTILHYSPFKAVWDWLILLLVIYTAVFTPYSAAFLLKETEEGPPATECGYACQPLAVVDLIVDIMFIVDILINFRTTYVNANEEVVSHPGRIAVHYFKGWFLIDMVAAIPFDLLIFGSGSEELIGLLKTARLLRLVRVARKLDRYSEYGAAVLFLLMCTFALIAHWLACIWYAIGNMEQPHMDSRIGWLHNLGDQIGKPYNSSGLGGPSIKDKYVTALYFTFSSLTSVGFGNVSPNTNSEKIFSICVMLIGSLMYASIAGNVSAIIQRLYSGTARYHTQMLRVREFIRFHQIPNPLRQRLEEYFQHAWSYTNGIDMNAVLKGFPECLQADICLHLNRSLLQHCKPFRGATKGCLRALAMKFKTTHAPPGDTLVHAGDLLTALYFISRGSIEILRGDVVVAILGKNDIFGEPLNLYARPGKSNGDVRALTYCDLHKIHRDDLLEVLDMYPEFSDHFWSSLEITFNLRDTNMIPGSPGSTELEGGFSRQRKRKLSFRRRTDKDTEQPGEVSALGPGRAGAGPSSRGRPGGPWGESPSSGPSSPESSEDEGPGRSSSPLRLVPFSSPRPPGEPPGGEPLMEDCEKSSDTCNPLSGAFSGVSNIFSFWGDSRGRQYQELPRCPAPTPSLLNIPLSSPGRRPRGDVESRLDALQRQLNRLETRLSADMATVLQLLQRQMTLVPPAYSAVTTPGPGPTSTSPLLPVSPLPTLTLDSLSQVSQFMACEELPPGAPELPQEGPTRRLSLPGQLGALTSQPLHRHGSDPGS

[2] = biological target: Voltage-gated inwardly rectifying potassium channel KCNH2 (Homo sapiens, UniProt Q12809); assay: Binding affinity to wild type human ERG expressed in HEK293 cells assessed as inhibition of tail current measured upon repolarization to -40 mV by patch clamp method
Sequence of Voltage-gated inwardly rectifying potassium channel KCNH2 (Homo sapiens, UniProt Q12809) (Q12809 whole entry): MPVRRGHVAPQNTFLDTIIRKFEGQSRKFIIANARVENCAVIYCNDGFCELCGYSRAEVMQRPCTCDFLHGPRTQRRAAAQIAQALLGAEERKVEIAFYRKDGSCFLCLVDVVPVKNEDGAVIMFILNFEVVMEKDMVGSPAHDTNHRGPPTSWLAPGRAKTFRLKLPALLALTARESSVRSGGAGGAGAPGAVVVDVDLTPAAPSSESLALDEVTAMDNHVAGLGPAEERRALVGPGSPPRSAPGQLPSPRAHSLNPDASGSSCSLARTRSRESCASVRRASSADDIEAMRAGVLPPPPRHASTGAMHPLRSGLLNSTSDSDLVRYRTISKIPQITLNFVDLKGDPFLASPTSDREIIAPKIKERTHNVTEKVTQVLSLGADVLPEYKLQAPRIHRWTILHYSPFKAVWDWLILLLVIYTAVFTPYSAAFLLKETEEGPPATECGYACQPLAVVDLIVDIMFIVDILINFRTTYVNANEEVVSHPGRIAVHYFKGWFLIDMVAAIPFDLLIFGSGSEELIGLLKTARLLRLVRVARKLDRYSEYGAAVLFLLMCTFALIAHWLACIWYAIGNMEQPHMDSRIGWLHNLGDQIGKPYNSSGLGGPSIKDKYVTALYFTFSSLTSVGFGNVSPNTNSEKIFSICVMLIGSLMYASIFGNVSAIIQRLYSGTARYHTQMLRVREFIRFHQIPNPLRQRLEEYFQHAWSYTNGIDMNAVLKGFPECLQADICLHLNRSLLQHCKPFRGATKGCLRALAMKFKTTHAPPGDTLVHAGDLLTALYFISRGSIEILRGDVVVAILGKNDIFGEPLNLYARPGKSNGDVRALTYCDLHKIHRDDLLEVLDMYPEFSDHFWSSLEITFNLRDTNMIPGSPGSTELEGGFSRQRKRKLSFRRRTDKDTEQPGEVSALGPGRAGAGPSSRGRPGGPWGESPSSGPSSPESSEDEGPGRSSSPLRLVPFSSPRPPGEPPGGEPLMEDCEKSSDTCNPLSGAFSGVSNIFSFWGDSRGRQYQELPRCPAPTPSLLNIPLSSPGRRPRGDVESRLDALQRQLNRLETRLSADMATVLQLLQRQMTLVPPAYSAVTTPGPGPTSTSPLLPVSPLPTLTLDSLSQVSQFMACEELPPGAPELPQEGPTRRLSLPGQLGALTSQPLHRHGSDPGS

[3] = biological target: T1, Voltage-gated inwardly rectifying potassium channel KCNH2; assay: Binding affinity to human ERG F656A tetrameric mutant expressed in HEK293 cells assessed as inhibition of tail current measured upon repolarization to -120 mV by patch clamp method
[4] = biological target: T2, Voltage-gated inwardly rectifying potassium channel KCNH2 (Homo sapiens, UniProt Q12809, Y652A); assay: Binding affinity to human ERG Y652A tandem dimeric mutant expressed in HEK293 cells assessed as inhibition of tail current measured upon repolarization to -40 mV by patch clamp method
T2 sequence (Q12809 whole entry Y652A): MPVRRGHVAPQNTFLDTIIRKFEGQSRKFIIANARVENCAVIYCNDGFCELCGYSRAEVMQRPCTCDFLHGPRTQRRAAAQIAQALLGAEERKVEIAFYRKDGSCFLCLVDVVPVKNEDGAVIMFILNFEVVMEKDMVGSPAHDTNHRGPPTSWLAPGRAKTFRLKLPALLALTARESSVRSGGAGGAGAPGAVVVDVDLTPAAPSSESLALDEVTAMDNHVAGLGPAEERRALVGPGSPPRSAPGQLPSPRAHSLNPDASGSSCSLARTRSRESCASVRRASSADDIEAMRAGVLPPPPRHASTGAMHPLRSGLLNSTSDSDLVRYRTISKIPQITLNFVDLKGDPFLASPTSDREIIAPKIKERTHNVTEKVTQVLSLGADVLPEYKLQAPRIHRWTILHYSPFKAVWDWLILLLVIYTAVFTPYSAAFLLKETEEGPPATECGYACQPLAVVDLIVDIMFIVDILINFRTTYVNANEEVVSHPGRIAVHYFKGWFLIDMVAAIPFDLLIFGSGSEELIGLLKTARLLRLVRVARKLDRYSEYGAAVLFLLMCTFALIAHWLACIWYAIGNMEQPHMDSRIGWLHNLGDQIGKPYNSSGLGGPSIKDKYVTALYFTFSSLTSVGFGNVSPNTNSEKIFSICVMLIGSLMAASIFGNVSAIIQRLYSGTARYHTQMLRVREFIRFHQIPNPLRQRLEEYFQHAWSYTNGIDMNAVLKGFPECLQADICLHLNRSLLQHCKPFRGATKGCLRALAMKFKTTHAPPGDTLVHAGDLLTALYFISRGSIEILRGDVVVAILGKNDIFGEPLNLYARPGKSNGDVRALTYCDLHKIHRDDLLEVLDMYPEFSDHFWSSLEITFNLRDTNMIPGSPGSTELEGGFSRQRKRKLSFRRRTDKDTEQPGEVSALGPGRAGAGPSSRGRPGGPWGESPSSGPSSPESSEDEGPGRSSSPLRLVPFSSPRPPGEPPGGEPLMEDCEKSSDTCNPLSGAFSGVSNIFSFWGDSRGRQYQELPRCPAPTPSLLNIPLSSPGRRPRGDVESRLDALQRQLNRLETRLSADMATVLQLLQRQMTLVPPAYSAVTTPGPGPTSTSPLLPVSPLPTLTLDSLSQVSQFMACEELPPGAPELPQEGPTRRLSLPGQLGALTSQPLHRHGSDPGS

[5] = biological target: Voltage-gated inwardly rectifying potassium channel KCNH2 (Homo sapiens, UniProt Q12809, S624A); assay: Binding affinity to human ERG S624A tetrameric mutant expressed in HEK293 cells assessed as inhibition of tail current measured upon repolarization to -40 mV by patch clamp method
Sequence of Voltage-gated inwardly rectifying potassium channel KCNH2 (Homo sapiens, UniProt Q12809, S624A) (Q12809 whole entry S624A): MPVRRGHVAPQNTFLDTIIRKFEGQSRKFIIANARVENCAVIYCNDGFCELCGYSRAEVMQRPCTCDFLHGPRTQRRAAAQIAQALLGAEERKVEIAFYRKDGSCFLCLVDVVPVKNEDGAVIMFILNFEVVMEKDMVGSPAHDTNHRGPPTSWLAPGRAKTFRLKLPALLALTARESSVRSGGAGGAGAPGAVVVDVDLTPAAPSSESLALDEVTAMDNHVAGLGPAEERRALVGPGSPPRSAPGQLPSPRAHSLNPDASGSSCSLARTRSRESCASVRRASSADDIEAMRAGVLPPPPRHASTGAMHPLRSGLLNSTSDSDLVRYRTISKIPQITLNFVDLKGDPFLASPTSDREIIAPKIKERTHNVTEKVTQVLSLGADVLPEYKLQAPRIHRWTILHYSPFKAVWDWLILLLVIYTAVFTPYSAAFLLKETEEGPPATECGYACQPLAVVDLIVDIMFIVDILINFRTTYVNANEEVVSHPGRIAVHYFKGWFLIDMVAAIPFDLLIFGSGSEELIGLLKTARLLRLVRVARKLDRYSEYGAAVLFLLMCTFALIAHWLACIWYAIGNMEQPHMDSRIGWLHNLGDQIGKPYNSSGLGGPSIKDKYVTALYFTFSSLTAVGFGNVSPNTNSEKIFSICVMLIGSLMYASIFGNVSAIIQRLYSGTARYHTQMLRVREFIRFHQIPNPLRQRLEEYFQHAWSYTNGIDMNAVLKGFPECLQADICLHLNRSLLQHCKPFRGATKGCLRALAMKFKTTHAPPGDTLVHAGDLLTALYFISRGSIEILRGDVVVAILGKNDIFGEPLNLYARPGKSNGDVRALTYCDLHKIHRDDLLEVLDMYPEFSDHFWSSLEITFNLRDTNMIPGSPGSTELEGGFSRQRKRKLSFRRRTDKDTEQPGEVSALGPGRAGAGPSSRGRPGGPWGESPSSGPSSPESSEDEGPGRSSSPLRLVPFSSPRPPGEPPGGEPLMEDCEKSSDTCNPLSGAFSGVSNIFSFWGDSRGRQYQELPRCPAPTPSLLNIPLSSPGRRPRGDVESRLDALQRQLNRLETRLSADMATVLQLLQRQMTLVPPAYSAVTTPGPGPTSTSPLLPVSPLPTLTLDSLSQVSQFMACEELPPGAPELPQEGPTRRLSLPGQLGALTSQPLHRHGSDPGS

[6] = biological target: T2, Voltage-gated inwardly rectifying potassium channel KCNH2; assay: Binding affinity to human ERG Y652A tetrameric mutant expressed in HEK293 cells assessed as inhibition of tail current measured upon repolarization to -40 mV by patch clamp method

For `C[C@@H]1CN(c2c(F)c(N)c3c(=O)c(C(=O)O)cn(C4CC4)c3c2F)C[C@H](C)N1` [SPARFLOXACIN], the IC50 [1] was 33.6 µM, the IC50 [2] was 21.7 µM and the IC50 [3] was over 250 µM. For the same compound, the IC50 [4] was 128 µM, the IC50 [5] was 46.9 µM and the IC50 [6] was over 250 µM.
